The IC50 is the concentration that gives 50% inhibition.

Results on 75 compounds are retold here after patent US20250346584A1, “NOVEL KAPPA OPIOID LIGANDS” (The Scripps Research Institute, priority 2012, published 2025).

In the assay the target is kappa opioid receptor (OPRK1) (Homo sapiens (Human), UniProt P41145). Description: OPRK1 antagonist assay (b-arrestin-2-TEV / b-lactamase reporter cell line, EC80 U-50488 challenge). The format is cell-based. As to conditions: read-out: IC50 nM (% inhib if other than 50%); antagonist mode vs EC80 U-50488; NA = not active at concentrations up to 10 μM.
Sequence of kappa opioid receptor (OPRK1) (P41145 whole entry): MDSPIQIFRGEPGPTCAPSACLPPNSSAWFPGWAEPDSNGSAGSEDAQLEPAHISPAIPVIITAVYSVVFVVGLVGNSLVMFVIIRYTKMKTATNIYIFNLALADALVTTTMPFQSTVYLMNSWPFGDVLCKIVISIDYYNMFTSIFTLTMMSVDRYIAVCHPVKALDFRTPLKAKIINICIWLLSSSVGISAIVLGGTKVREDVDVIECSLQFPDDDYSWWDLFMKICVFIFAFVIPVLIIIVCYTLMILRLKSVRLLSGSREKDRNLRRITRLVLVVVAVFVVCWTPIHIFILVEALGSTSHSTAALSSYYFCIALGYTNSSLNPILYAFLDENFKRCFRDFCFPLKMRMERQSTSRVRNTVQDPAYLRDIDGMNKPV

With `CCc1noc(-c2cc(C)cnc2N2CC[C@@H](NC3CCCCC3)[C@H](O)C2)n1` [compound 168], the IC50 came to 7000 nM.
With `Cc1cnc(N2CC[C@@H](NC3CCCCC3)[C@H](O)C2)c(-c2ncco2)c1` [compound 169] the figure was 2500 nM.
As for `CCc1noc(-c2cc(C)cnc2N2CCC(NC3CCCCC3)C(CO)C2)n1` (stereo not drawn) [compound 171], the half-inhibitory concentration (IC50) was 1100 nM.
Regarding `Cc1noc(-c2cc3ccccc3nc2N2CC[C@@H](NC3CCCCC3)[C@H](O)C2)n1` [compound 172], the IC50 was found to be 22 nM.
With `Cc1noc(-c2cc(C(F)(F)F)cnc2N2CC[C@@H](NC3CCCCC3)[C@H](O)C2)n1` [compound 173] the figure was 1200 nM.
In the case of `COC1CN(c2ncc(C(F)(F)F)cc2-c2nc(C)no2)CCC1NC1CCCCC1` (stereo not drawn) [compound 174] it was 180 nM; in that of `Cc1cc(-c2nc(C)no2)c(N2CC[C@@H](NC3CCCCC3)[C@H](O)C2)nn1` [compound 175], 46 nM; in that of `COC1CN(c2nc3ccccc3cc2-c2nc(C)no2)CCC1NC1CCCCC1` (stereo not drawn) [compound 176], 28 nM.
In the case of `Cc1noc(-c2cnc(N3CC[C@@H](NC4CCCCC4)[C@H](O)C3)c(C)c2)n1` [compound 177] it was > 20 nM.
In the case of `COC1CN(c2nc(C)c(C)cc2-c2nc(C)no2)CCC1NC1CCCCC1` (stereo not drawn) [compound 178], the 50% inhibitory concentration (IC50) amounted to 483 nM.
Regarding `COC1CN(c2ncc(C)cc2-c2nc(C)no2)CCC1NC1CCCCC1` (stereo not drawn) [compound 179], the IC50 was determined as 253 nM.
Turning to `Cc1cc(-c2nc(C)no2)c(N2CCC(NC3CCCCC3)C(CO)C2)nn1` (stereo not drawn) [compound 180], the IC50 is 7 nM.
In the case of `CCC1(CO)CN(c2ncc(C)cc2-c2nc(C)no2)CCC1NC1CCCCC1` (stereo not drawn) [compound 182] it was 76 nM; in that of `CCC1CN(c2ncc(C)cc2-c2nc(C)no2)CCC1NC1CCCCC1` (stereo not drawn) [compound 183], 280 nM.
`Cc1noc(-c2cc3ccccc3nc2N2CCC(NC3CCCCC3)C(CO)C2)n1` (stereo not drawn) [compound 186]: the IC50 stood at 5 nM.
Turning to `Cc1noc(-c2cc(C(F)(F)F)cnc2N2CCC(NC3CCCCC3)C(CO)C2)n1` (stereo not drawn) [compound 187], the IC50 came out at 341 nM.
With `Cc1noc(-c2nc3ccccc3nc2N2CC[C@@H](NC3CCCCC3)[C@H](O)C2)n1` [compound 188] the figure was 187 nM; with `Cc1noc(-c2nc3ccccc3nc2N2CCC(NC3CCCCC3)C(CO)C2)n1` (stereo not drawn) [compound 189], 125 nM; with `COC1CN(c2nc3ccccc3nc2-c2nc(C)no2)CCC1NC1CCCCC1` (stereo not drawn) [compound 190], 57 nM.
With `Cc1noc(-c2cc3c(nc2N2CCC(NC4CCCCC4)C(CO)C2)CCCC3)n1` (stereo not drawn) [compound 191] the figure was 420 nM; with `Cc1noc(-c2cc3ccccc3nc2N2CC[C@@H](NC3CCCCC3)[C@H](O)C2)n1` [compound 192], 199 nM.
Consider `COC1CN(c2nc3c(cc2-c2nc(C)no2)CCCC3)CCC1NC1CCCCC1` (stereo not drawn) [compound 193], for which the 50% inhibitory concentration (IC50) turned out to be 729 nM.
With `Cc1cnc(N2CCC(NC3CCCCC3)C(C)C2)c(-c2nc(C)no2)c1` (stereo not drawn) [compound 194] the figure was 180 nM; with `Cc1cnc(N2CCC(NC3CCOCC3)C(CO)C2)c(-c2nc(C)no2)c1` (stereo not drawn) [compound 195], 700 nM; with `COC1CCCCC1NC1CCN(c2ncc(C)cc2-c2nc(C)no2)CC1CO` (stereo not drawn) [compound 196], 414 nM.
Consider `Cc1cnc(N2CCC(NC3CCCCCC3)C(CO)C2)c(-c2nc(C)no2)c1` (stereo not drawn) [compound 197], for which the IC50 stood at 85 nM.
As to `Cc1noc(-c2cc3ccccc3nc2N2CCC(NC3CCOCC3)C(CO)C2)n1` (stereo not drawn) [compound 198], the IC50 worked out at 98 nM.
For the compound `COC1CCCCC1NC1CCN(c2nc3ccccc3cc2-c2nc(C)no2)CC1CO` (stereo not drawn) [compound 199], the IC50 was determined as 59 nM.
In the case of `Cc1noc(-c2cc3ccccc3nc2N2CCC(NC3CCCCCC3)C(CO)C2)n1` (stereo not drawn) [compound 200] it was 14 nM; in that of `Cc1cnc(N2CCC(NC3CCCC3)C(CO)C2)c(-c2nc(C)no2)c1` (stereo not drawn) [compound 201], 116 nM; in that of `Cc1noc(-c2nc3ccccc3nc2N2CCC(NC3CCCC3)C(CO)C2)n1` (stereo not drawn) [compound 202], 187 nM.
As for `Cc1cnc(N2CCC(NC3CCCCC3C)C(CO)C2)c(-c2nc(C)no2)c1` (stereo not drawn) [compound 203], the IC50 amounted to 132 nM.
With `Cc1noc(-c2cc3ccccc3nc2N2CCC(NC3CCCCC3)C(F)C2)n1` (stereo not drawn) [compound 204], the half-inhibitory concentration (IC50) amounted to 52 nM.
With `Cc1noc(-c2cc3ccccc3nc2N2CCC(NC3CCCC3)C(CO)C2)n1` (stereo not drawn) [compound 205] the figure was 17 nM.
In the case of `Cc1noc(-c2cc3ccccc3nc2N2CCC(NC3CCCCC3C)C(CO)C2)n1` (stereo not drawn) [compound 206] it was 33 nM; in that of `Cc1noc(-c2cc3c(nc2N2CC[C@@H](NC4CCCCC4)[C@H](O)C2)CCC3)n1` [compound 207], 276 nM; in that of `CCC1(CO)CN(c2nc3ccccc3cc2-c2nc(C)no2)CCC1NC1CCCCC1` (stereo not drawn) [compound 208], 76 nM.
For the compound `Cc1noc(-c2cc3ccccc3nc2N2CCC(NC3CCCCC3)CC2)n1` [compound 209], the IC50 came out at 18 nM.
For `COC1CN(c2nc3c(cc2-c2nc(C)no2)CCC3)CCC1NC1CCCCC1` (stereo not drawn) [compound 210], the IC50 stood at 72 nM.
Take `Cc1noc(-c2cc3c(nc2N2CCC(NC4CCCCC4)C(CO)C2)CCC3)n1` (stereo not drawn) [compound 211]: the 50% inhibitory concentration (IC50) came out at 74 nM.
On to `Cc1noc(-c2cc3ccccc3nc2N2CCC(NC3CCCCC3)C2)n1` (stereo not drawn) [compound 212], for which the IC50 was 267 nM.
`Cc1ccc2nc(N3CC[C@@H](NC4CCCCC4)[C@H](O)C3)c(-c3nc(C)no3)cc2c1` [compound 213]: the IC50 was 8.5 nM.
With `COC1CN(c2nc3ccc(C)cc3cc2-c2nc(C)no2)CCC1NC1CCCCC1` (stereo not drawn) [compound 214] the figure was 3 nM; with `Cc1ccc2nc(N3CCC(NC4CCCCC4)C(CO)C3)c(-c3nc(C)no3)cc2c1` (stereo not drawn) [compound 215], 3 nM.
Regarding `Cc1cnc(N2CCC(NC3CCCCC3)C(CO)C2)c(C=O)c1` (stereo not drawn) [compound 216], the IC50 stood at 4500 nM.
As to `Cc1cnc(N2CCC(NC3CCCCC3)C(CO)C2)c(-c2ncco2)c1` (stereo not drawn) [compound 217], the IC50 is 361 nM.
With `O[C@@H]1CN(c2nc3ccccc3cc2-c2ncco2)CC[C@H]1NC1CCCCC1` [compound 218], the IC50 amounted to 475 nM.
As for `Cc1ccc2nc(N3CCC(NC4CCCCC4)CC3)c(-c3nc(C)no3)cc2c1` [compound 219], the concentration for half-maximal inhibition (IC50) was determined as 3.5 nM.
As to `Cc1noc(-c2cc(C)c(C)nc2N2CCC(NC3CCCCC3)CC2)n1` [compound 221], the IC50 was determined as 24 nM.
In the case of `Cc1noc(-c2cc3ccccc3nc2N2CCC(CO)(NC3CCCCC3)CC2)n1` [compound 222] it was 163 nM; in that of `Cc1noc(-c2cc(C)c(C)nc2N2CCC(NC3CCCC3)C(CO)C2)n1` (stereo not drawn) [compound 223], 13 nM; in that of `Cc1noc(-c2cc(C)c(C)nc2N2CCC(NC3CCCCC3C)C(CO)C2)n1` (stereo not drawn) [compound 224], 17 nM.
Turning to `COC1CN(c2nc3ccccc3cc2-c2ncco2)CCC1NC1CCCCC1` (stereo not drawn) [compound 225], the IC50 is 70 nM.
With `OCC1CN(c2nc3ccccc3cc2-c2ncco2)CCC1NC1CCCCC1` (stereo not drawn) [compound 226] the figure was 107 nM; with `Cc1ccc2cc(-c3nc(C)no3)c(N3CC[C@@H](NC4CCCCC4)[C@H](O)C3)nc2c1` [compound 227], 7 nM.
Turning to `COC1CN(c2nc3cc(C)ccc3cc2-c2nc(C)no2)CCC1NC1CCCCC1` (stereo not drawn) [compound 228], the IC50 amounted to 21 nM.
For the compound `Cc1ccc2cc(-c3nc(C)no3)c(N3CCC(NC4CCCCC4)C(CO)C3)nc2c1` (stereo not drawn) [compound 229], the IC50 amounted to 5 nM.
As to `Cc1noc(-c2cc3ccccc3nc2N2CCC(NC3CCCCC3O)CC2)n1` (stereo not drawn) [compound 230], the 50% inhibitory concentration (IC50) was 9 nM.
Regarding `Cc1noc(-c2cc3ccccc3nc2N2CCC(NC3CCOCC3)CC2)n1` [compound 232], the IC50 was found to be 8 nM.
With `Cc1noc(-c2cc3ccccc3nc2N2CC(NC3CCCCC3)C2)n1` [compound 234] the figure was 596 nM; with `Cc1noc(-c2cc3ccccc3nc2N2CCC(NC3CCCOC3)CC2)n1` (stereo not drawn) [compound 235], 4 nM; with `Cc1noc(-c2cc3ccccc3nc2N2CCC(NC3CCOC3)CC2)n1` (stereo not drawn) [compound 236], 20 nM.
Regarding `CCC(CC)NC1CCN(c2nc3ccccc3cc2-c2nc(C)no2)CC1` [compound 237], the IC50 stood at 8 nM.
For `Cc1noc(-c2cc3cc(Cl)ccc3nc2N2CC[C@@H](NC3CCCCC3)[C@H](O)C2)n1` [compound 238], the IC50 was found to be 38 nM.
`Cc1noc(-c2cc3cc(Cl)ccc3nc2N2CCC(NC3CCCCC3)C(CO)C2)n1` (stereo not drawn) [compound 239]: the IC50 is 16 nM.
`COC1CN(c2nc3ccc(Cl)cc3cc2-c2nc(C)no2)CCC1NC1CCCCC1` (stereo not drawn) [compound 240]: the 50% inhibitory concentration (IC50) was determined as 14 nM.
`Cc1noc(-c2cc3cc(F)ccc3nc2N2CC[C@@H](NC3CCCCC3)[C@H](O)C2)n1` [compound 241]: the IC50 worked out at 59 nM.
`COC1CN(c2nc3ccc(F)cc3cc2-c2nc(C)no2)CCC1NC1CCCCC1` (stereo not drawn) [compound 242]: the IC50 stood at 26 nM.
As for `Cc1noc(-c2cc3cc(F)ccc3nc2N2CCC(NC3CCCCC3)C(CO)C2)n1` (stereo not drawn) [compound 243], the concentration for half-maximal inhibition (IC50) was 22 nM.
With `Cc1cnc(N2CC[C@@H](NC3CCCCC3)[C@H](O)C2)c(-c2ncccn2)c1` [compound 244], the 50% inhibitory concentration (IC50) amounted to 566 nM.
With `Cc1cnc(N2CCC(NC3CCCCC3)C(CO)C2)c(-c2ncccn2)c1` (stereo not drawn) [compound 245], the IC50 turned out to be 79 nM.
With `Cc1ccc2nc(N3CCC(NC4CCC(O)CC4)CC3)c(-c3nc(C)no3)cc2c1` (stereo not drawn) [compound 246] the figure was 51 nM.
Consider `Cc1ccc2nc(N3CCC(NC4CCCOC4)CC3)c(-c3nc(C)no3)cc2c1` (stereo not drawn) [compound 247], for which the half-inhibitory concentration (IC50) was found to be 4 nM.
Turning to `COC1CN(c2nc3ccc(C)cc3cc2-c2nc(C)no2)CCC1NC1CCCCC1F` (stereo not drawn) [compound 249], the half-inhibitory concentration (IC50) came to 9 nM.
`Cc1ccc2nc(N3CCC(NC4CCCCC4F)CC3)c(-c3nc(C)no3)cc2c1` (stereo not drawn) [compound 250]: the half-maximal inhibitory concentration (IC50) was determined as 8 nM.
